Measured values taken from patent US11046699B2, “Pyrazolo-pyrimidin-amino-cycloalkyl compounds and their therapeutic uses” (RAPT THERAPEUTICS, INC., priority 2018, dated 2021).

Each compound was assayed against GCN2 (Homo sapiens, UniProt Q9P2K8) (assay: GCN2 enzymatic endpoint assay: phosphorylation of GFP-eIF2α measured by TR-FRET (Lanthascreen)). Settings: tested as described in Example 77; compound and/or hydrochloride, dihydrochloride or trifluoroacetic acid salt; read-out: IC 50 Activity.
Type: biochemical
Procedure, shortened: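 Phosphorylated eIF2α read by Lanthascreen TR-FRET (acceptor 520 nm over donor 495 nm) after EDTA stop. The reaction ran 90 min at room temperature on 80 nM GFP-eIF2α with 2 μM ATP.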

GCN2, sequence (Q9P2K8 whole entry): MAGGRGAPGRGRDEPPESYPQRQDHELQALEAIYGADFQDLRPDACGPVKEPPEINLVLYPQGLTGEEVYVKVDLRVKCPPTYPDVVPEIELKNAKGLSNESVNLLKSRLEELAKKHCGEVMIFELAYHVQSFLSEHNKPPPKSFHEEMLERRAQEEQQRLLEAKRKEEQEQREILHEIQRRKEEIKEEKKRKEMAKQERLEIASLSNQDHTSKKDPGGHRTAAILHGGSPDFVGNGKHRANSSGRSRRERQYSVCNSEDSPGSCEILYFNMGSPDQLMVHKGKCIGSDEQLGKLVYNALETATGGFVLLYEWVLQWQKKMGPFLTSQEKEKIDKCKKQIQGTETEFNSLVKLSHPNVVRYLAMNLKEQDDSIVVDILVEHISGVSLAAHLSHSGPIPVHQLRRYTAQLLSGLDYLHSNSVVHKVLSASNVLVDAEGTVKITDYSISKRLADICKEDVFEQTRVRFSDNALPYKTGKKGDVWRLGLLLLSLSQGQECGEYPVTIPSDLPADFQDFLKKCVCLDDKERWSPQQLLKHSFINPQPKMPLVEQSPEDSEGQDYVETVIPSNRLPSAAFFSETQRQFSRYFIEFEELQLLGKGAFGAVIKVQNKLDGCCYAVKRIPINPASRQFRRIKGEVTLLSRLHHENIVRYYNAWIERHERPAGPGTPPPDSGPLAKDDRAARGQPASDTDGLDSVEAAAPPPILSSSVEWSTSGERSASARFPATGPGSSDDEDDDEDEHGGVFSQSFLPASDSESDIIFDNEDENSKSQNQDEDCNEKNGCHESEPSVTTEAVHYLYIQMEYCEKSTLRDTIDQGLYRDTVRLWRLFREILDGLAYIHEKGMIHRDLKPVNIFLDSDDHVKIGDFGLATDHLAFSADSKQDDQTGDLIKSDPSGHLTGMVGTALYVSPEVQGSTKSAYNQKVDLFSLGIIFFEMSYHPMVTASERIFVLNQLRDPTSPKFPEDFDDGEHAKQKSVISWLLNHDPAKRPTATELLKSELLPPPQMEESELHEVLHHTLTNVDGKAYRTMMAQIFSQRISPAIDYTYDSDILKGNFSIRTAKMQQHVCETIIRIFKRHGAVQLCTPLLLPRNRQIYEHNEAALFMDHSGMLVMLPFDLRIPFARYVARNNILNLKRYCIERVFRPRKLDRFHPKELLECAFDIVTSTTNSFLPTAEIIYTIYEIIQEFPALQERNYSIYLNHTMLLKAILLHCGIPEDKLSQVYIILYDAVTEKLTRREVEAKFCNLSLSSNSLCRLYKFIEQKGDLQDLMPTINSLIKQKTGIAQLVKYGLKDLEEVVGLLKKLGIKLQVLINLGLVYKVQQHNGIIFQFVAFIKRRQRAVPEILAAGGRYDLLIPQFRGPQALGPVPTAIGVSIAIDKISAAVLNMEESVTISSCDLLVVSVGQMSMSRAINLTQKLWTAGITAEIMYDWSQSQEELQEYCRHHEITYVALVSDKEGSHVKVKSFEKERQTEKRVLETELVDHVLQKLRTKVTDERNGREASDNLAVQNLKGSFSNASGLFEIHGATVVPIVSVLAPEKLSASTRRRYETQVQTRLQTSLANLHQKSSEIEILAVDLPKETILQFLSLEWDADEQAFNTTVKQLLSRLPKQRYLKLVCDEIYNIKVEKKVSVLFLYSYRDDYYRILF

IC50 [nM]	Compound
25 to 200	CNC(=O)[C@@]1(CC(F)F)CC[C@@H](Nc2ncc3c(Br)nn(-c4cc(CCO)c5ncccc5c4)c3n2)C1 [(1S,3R)-3-[[3-bromo-1-[8-(2-hydroxyethyl)-6-quinolyl]pyrazolo[3,4-d]pyrimidin-6-yl]amino]-1-(2,2-difluoroethyl)-N-methyl-cyclopentanecarboxamide]
25 to 200	CNC(=O)[C@@]1(C)CC[C@@H](Nc2ncc3c(I)nn(-c4ccc(-c5nnc(C)o5)cc4)c3n2)C1 [(1S,3R)-3-[[3-iodo-1-[4-(5-methyl-1,3,4-oxadiazol-2-yl)phenyl]pyrazolo[3,4-d]pyrimidin-6-yl]amino]-N,1-dimethyl-cyclopentanecarboxamide]
500 to 1000	COCCNC(=O)[C@H]1CC[C@H](Nc2ncc3c(Br)nn(-c4ccc5ncccc5c4)c3n2)C1 [(1S,3S)-3-((3-bromo-1-(quinolin-6-yl)-1H-pyrazolo[3,4-d]pyrimidin-6-yl)amino)-N-(2-methoxyethyl)cyclopentane-1-carboxamide]
25 to 200	CNC(=O)C1(C)CC[C@@H](Nc2ncc3c(Br)nn(-c4ccc5nc(OC)ccc5c4)c3n2)C1 (stereo partly drawn) [(3R)-3-((3-bromo-1-(2-methoxyquinolin-6-yl)-1H-pyrazolo[3,4-d]pyrimidin-6-yl)amino)-N,1-dimethylcyclopentane-1-carboxamide]
25 to 200	CNC(=O)C1(C)CC[C@@H](Nc2ncc3c(Br)nn(-c4ccc5nc(OC)ccc5c4)c3n2)C1 (stereo partly drawn) [(3R)-3-[[3-bromo-1-(2-methoxy-6-quinolyl)pyrazolo[3,4-d]pyrimidin-6-yl]amino]-N,1-dimethyl-cyclopentanecarboxamide]
< 25	CC1(C(N)=O)CC[C@@H](Nc2ncc3c(Br)nn(-c4ccc(-c5ncco5)c(F)c4)c3n2)C1 (stereo partly drawn) [(3R)-3-[[3-bromo-1-(3-fluoro-4-oxazol-2-yl-phenyl)pyrazolo[3,4-d]pyrimidin-6-yl]amino]-1-methyl-cyclopentanecarboxamide]

The remaining lines, values behind:

Compound	IC50 [nM]
COCCNS(=O)(=O)[C@H]1CC[C@@H](Nc2ncc3c(Br)nn(-c4ccc(-c5nnc(C)s5)cc4)c3n2)C1 [(1S,3R)-3-[[3-bromo-1-[4-(5-methyl-1,3,4-thiadiazol-2-yl)phenyl]pyrazolo[3,4-d]pyrimidin-6-yl]amino]-N-(2-methoxyethyl)cyclopentanesulfonamide]	25 to 200
CNC(=O)[C@H]1C[C@H](Nc2ncc3c(Br)nn(-c4cc(Cl)cc(CO)c4)c3n2)CO1 [(2R,4S)-4-[[3-bromo-1-[3-chloro-5-(hydroxymethyl)phenyl]pyrazolo [3,4-d]pyrimidin-6-yl]amino]-N-methyl-tetrahydrofuran-2-carboxamide]	25 to 200
CNC(=O)[C@H]1C[C@H](Nc2ncc3c(Br)nn(-c4ccc(-c5nnc(C)s5)cc4)c3n2)CO1 [(2R,4S)-4-[[3-bromo-1-[4-(5-methyl-1,3,4-thiadiazol-2-yl)phenyl]pyrazolo [3,4-d]pyrimidin-6-yl]amino]-N-methyl-tetrahydrofuran-2-carboxamide]	25 to 200
O=C([C@@H]1CC[C@@H](Nc2ncc3c(Br)nn(-c4ccc5ncccc5c4)c3n2)C1)N1C2CCC1COC2 [(3-oxa-8-azabicyclo[3.2.1]octan-8-yl)((1R,3R)-3-((3-bromo-1-(quinolin-6-yl)-1H-pyrazolo [3,4-d]pyrimidin-6-yl)amino)cyclopentyl) methanone]	25 to 200
CN(C)S(=O)(=O)C1CC[C@@H](Nc2ncc3c(Br)nn(-c4cc(F)c5ncccc5c4)c3n2)C1 (stereo partly drawn) [(3R)-3-((3-bromo-1-(8-fluoroquinolin-6-yl)-1H-pyrazolo[3,4-d]pyrimidin-6-yl)amino)-N,N-dimethylcyclopentane-1-sulfonamide]	25 to 200
CNC(=O)C1(C#N)CC[C@@H](Nc2ncc3c(Br)nn(-c4cc(Cl)cc([C@H](C)N)c4)c3n2)C1 (stereo partly drawn) [(3R)-3-[[1-[3-[(1S)-1-aminoethyl]-5-chloro-phenyl]-3-bromo-pyrazolo[3,4-d]pyrimidin-6-yl]amino]-1-cyano-N-methyl-cyclo-pentanecarboxamide; 2,2,2-trifluoroacetic acid]	25 to 200
